Source: patent US7122193B1 (priority 1994, dated 2006)

How the values were obtained:
Format in all cases: cell-based, mouse
[1] = test system: peptide-primed T lymphocytes from BALB/c mice
[2] = test system: peptide-primed T lymphocytes from BALB/c mice; remark: listed apart in the source
[3] = test system: TCR of peptide-primed lymph node T-cells

CH3CO-(D)Thr-(D)Asp-(D)Lys-(D)Tyr-(D)Thr-(D)Ile-(D)Lys-(D)Trp-(D)Val-(D)Ala-(D)Phe-(D)Leu-(D)Lys-NH2
proliferation of T-lymphocytes of mice immunized with retro-inverso analogue 103–115, in response to the peptide [1]: proliferated in response to the homologous peptide | proliferation of lymph node cells of mice immunized with parent peptide 103–115, stimulated in vitro by the peptide [1]: did not proliferate in vitro | IL-2 production of lymph node cells of mice immunized with parent peptide 103–115, stimulated in vitro by the peptide [2]: No IL-2 production was observed | maximal IL-2 secretion measured using CTL-L cells in the presence of Con A [2]: 5 570 cpm | IL-2 secretion by T-cells from mice immunized against the L-peptide 103–115 in the presence of the peptide [3]: remains unchanged
